Where a name gives a salt, the structure may show the parent alone.
Columns and labels:
[1] = Compound cytotoxicity, XTT-based colorimetric assay; assay type: cell-based; details: human, uninfected MT2 cells
Procedure: Compound cytotoxicity and the corresponding CC50 values were determined using the same protocol as described in the antiviral assay except that uninfected cells were used. Cytotoxicity was assessed on day 4 in uninfected MT2 cells by using a XTT (2,3-bis[2-Methoxy-4-nitro-5-sulfophenyl]-2H-tetrazolium-5-carboxyanilide inner salt)-based colorimetric assay (Sigma-Aldrich, St Louis, Mo.). Biological data for select compounds of the invention are contained in Table 1 and Table 1a

[2] = tested on: recombinant NL4-3 virus (nef section replaced with Renilla luciferase gene) in MT-2 cells; assay: HIV cell culture assay (antiviral activity, luciferase readout); assay type: cell-based; details: MT-2 cells infected for 4-5 days with recombinant NL4-3 luciferase virus
Procedure: HIV cell culture assay—MT-2 cells, 293T cells and the proviral DNA clone of NL4-3 virus were obtained from the NIH AIDS Research and Reference Reagent Program. MT-2 cells were propagated in RPMI 1640 media supplemented with 10% heat inactivated fetal bovine serum (FBS), 100 μg/ml penicillin G and up to 100 units/mL streptomycin. The 293T cells were propagated in DMEM media supplemented with 10% heat inactivated FBS, 100 μg/mL penicillin G and 100 μg/mL streptomycin. A recombinant NL4-3 proviral clone, in which a section of the nef gene was replaced with the Renilla luciferase gene, was used to make the reference virus used in these studies. The recombinant virus was prepared through transfection of the recombinant NL4-3 proviral clone into 293T cells using Transit-293 Transfection Reagent from Mirus Bio LLC (Madison, Wis.). Supernatent was harvested after 2-3 days and the amount of virus present was titered in MT-2 cells using luciferase enzyme activity as a marker by measuring luciferase enzyme activity. Luciferase was quantitated using the EnduRen Live Cell Substrate from Promega (Madison, Wis.). Antiviral activities of compounds toward the recombinant virus were quantified by measuring luciferase activity in MT-2 cells infected for 4-5 days with the recombinant virus in the presence of serial dilutions of the compound.
The 50% effective concentration (ECs) was calculated by using the exponential form of the median effect equation where (Fa)=1/[1+(ED50/drug conc.)^m] (Johnson Va., Byington RT. Infectivity Assay. In Techniques in HIV Research. ed. Aldovini A, Walker BD. 71-76. New York: Stockton Press. 1990).

| Structure (SMILES) | CC50 at 4 days ([1]; Table 1a, day 4, XTT) | EC50 ([2]; Renilla, NL43, Table 1a) | CC50 at 4 days ([1]; Table 1, day 4, XTT) | EC50 ([2]; Renilla, NL43, Table 1) | further results |
| --- | --- | --- | --- | --- | --- |
| O=C(Cn1nc(C(F)F)c2c1C(F)(F)[C@@H]1C[C@H]21)N[C@@H](Cc1cc(F)cc(F)c1)c1nc2ccccc2nc1-c1ccc2c(c1)C(=O)NC2 [Example 157, 2-((3bS,4aR)-3-(difluoromethyl)-5,5-difluoro-3b,4,4a,5-tetrahydro-1H-cyclopropa[3,4]cyclopenta[1,2-c]pyrazol-1-yl)-N—((S)-2-(3,5-difluorophenyl)-1-(3-(3-oxoisoindolin-5-yl)quinoxalin-2-yl)ethyl)acetamide] | > 10000 nM | 10.4 nM | – | – | – |
| Cc1nc2nc(C(Cc3cc(F)cc(F)c3)NC(=O)Cn3nc(C(F)F)c4c3C(F)(F)[C@@H]3C[C@H]43)c(-c3ccc(Cl)c4c(NS(C)(=O)=O)nn(C)c34)cc2s1 (single isomer, unassigned) [Example 2.1] | – | – | > 10000 nM | – | EC50 ([2]; Table 1): 0.1 nM |
| CCOc1ccc2c(=O)n(-c3ccc(Cl)c4c(NS(C)(=O)=O)nn(C)c34)c(C(Cc3cc(F)cc(F)c3)NC(=O)Cn3nc(C(F)F)c4c3C(F)(F)[C@@H]3C[C@H]43)nc2n1 (mixture of isomers) [Example 60.1] | > 1000 nM | 0.397 nM | – | – | – |
| O=C(Cn1nc(C(F)F)c2c1C(F)(F)[C@@H]1C[C@H]21)N[C@@H](Cc1cc(F)cc(F)c1)c1nc2cn[nH]c2cc1-c1ccc2ccnn2c1 [Example 10.36, 2-((3bS,4aR)-3-(difluoromethyl)-5,5-difluoro-3b,4,4a,5-tetrahydro-1H-cyclopropa[3,4]cyclopenta[1,2-c]pyrazol-1-yl)-N—((S)-2-(3,5-difluorophenyl)-1-(6-(pyrazolo[1,5-a]pyridin-6-yl)-1H-pyrazolo[4,3-b]pyridin-5-yl)ethyl)acetamide] | – | – | > 10000 nM | 80 nM | – |
| Cn1nc(NS(C)(=O)=O)c2c(Cl)ccc(-n3c([C@H](Cc4cc(F)cc(F)c4)NC(=O)Cn4nc(C(F)F)c5c4C(F)(F)[C@@H]4C[C@H]54)nc4cc(C#N)ccc4c3=O)c21 (single isomer, unassigned) [Example 20] | – | – | > 10000 nM | 24 nM | – |
| CS(=O)(=O)Nc1nn(CC(F)F)c2c(-c3cc4[nH]ncc4nc3[C@H](Cc3cc(F)cc(F)c3)NC(=O)Cn3nc(C(F)F)c4c3C(F)(F)[C@@H]3C[C@H]43)ccc(Cl)c12 (single isomer, unassigned) [Example 92] | > 10000 nM | 0.161 nM | – | – | – |
| CC(C)S(=O)(=O)NC(=O)c1cc(-c2cc3[nH]ncc3nc2[C@H](Cc2cc(F)cc(F)c2)NC(=O)Cn2nc(C(F)F)c3c2C(F)(F)[C@@H]2C[C@H]32)ccc1Cl [Example 10.19, 2-chloro-5-(5-((S)-1-(2-((3bS,4aR)-3-(difluoromethyl)-5,5-difluoro-3b,4,4a,5-tetrahydro-1H-cyclopropa[3,4]cyclopenta[1,2-c]pyrazol-1-yl)acetamido)-2-(3,5-difluorophenyl)ethyl)-1H-pyrazolo[4,3-b]pyridin-6-yl)-N-(isopropylsulfonyl)benzamide] | – | – | > 10000 nM | 220 nM | – |
| Cn1nc(NS(C)(=O)=O)c2c(Cl)ccc(-n3c([C@H](Cc4cc(F)cc(F)c4)NC(=O)Cn4ccc(C5CC5)n4)nc4cccc(F)c4c3=O)c21 (single isomer, unassigned) [Example 183] | > 1000 nM | – | – | – | EC50 ([2]; Table 1a): 21.5 nM |
| CC(C)(c1ccc2c(=O)n(-c3ccc(Cl)c4c(NS(=O)(=O)C5CC5)nn(CC(F)F)c34)c([C@H](Cc3cc(F)cc(F)c3)NC(=O)Cn3nc(C(F)F)c4c3C(F)(F)[C@@H]3C[C@H]43)nc2c1)S(C)(=O)=O [Example 214, N—((S)-1-(3-(4-chloro-3-(cyclopropanesulfonamido)-1-(2,2-difluoroethyl)-1H-indazol-7-yl)-7-(2-(methylsulfonyl)propan-2-yl)-4-oxo-3,4-dihydroquinazolin-2-yl)-2-(3,5-difluorophenyl)ethyl)-2-((3bS,4aR)-3-(difluoromethyl)-5,5-difluoro-3b,4,4a,5-tetrahydro-1H-cyclopropa[3,4]cyclopenta[1,2-c]pyrazol-1-yl)acetamide, TFA] | > 1000 nM | 0.071 nM | – | – | – |
| Cn1nc(NS(C)(=O)=O)c2c(Cl)ccc(-n3c([C@H](Cc4cc(F)cc(F)c4)NC(=O)Cn4nc(C(F)F)c5c4C(F)(F)[C@@H]4C[C@H]54)nc4ccc(F)cc4c3=O)c21 (single isomer, unassigned) [Example 21] | – | – | > 2700 nM | 45 nM | – |
| COc1ccc2c(=O)n(-c3ccc(Cl)c4c(NS(C)(=O)=O)nn(C)c34)c([C@H](Cc3cc(F)cc(F)c3)NC(=O)Cn3nc(C(F)F)c4c3C(F)(F)[C@@H]3C[C@H]43)nc2c1 (single isomer, unassigned) [Example 17] | – | – | > 10000 nM | 61 nM | – |
| Cn1nc(NS(C)(=O)=O)c2c(Cl)ccc(-n3c([C@H](Cc4cc(F)cc(F)c4)NC(=O)Cn4nc(C(F)F)c5c4CCC5)nc4c(F)cc(F)cc4c3=O)c21 (single isomer, unassigned) [Example 99] | > 1000 nM | – | – | – | EC50 ([2]; Table 1a): 17.8 nM |
| O=C(Cn1nc(C(F)F)c2c1C(F)(F)[C@@H]1C[C@H]21)N[C@@H](Cc1cc(F)cc(F)c1)c1nc2ccccc2nc1-c1ccc(S(=O)(=O)N2CCOCC2)cc1 [Example 156, 2-((3bS,4aR)-3-(difluoromethyl)-5,5-difluoro-3b,4,4a,5-tetrahydro-1H-cyclopropa[3,4]cyclopenta[1,2-c]pyrazol-1-yl)-N—((S)-2-(3,5-difluorophenyl)-1-(3-(4-(morpholinosulfonyl)phenyl)quinoxalin-2-yl)ethyl)acetamide] | > 10000 nM | 16.4 nM | – | – | – |
| CCOc1ccc2c(=O)n(-c3ccc(Cl)c4c(NS(C)(=O)=O)nn(C)c34)c([C@H](Cc3cc(F)cc(F)c3)NC(=O)Cn3nc(C(F)F)c4c3C(F)(F)[C@@H]3C[C@H]43)nc2n1 (mixture of isomers) [Example 60.2, N-[(1S)-1-[3-(4-chloro-3-methanesulfonamido-1-methyl-1H-indazol-7-yl)-7-ethoxy-4-oxo-3H,4H-pyrido[2,3-d]pyrimidin-2-yl]-2-(3,5-difluorophenyl)ethyl]-2-[(2S,4R)-9-(difluoromethyl)-5,5-difluoro-7,8-diazatricyclo[4.3.0.0^2,4]nona-1(6),8-dien-7-yl]acetamide] | > 1000 nM | 0.0174 nM | – | – | – |
| COc1ccc2c(=O)n(-c3ccc(Cl)c4c(NS(C)(=O)=O)nn(C)c34)c([C@H](Cc3cc(F)cc(F)c3)NC(=O)Cn3ccc(C4CC4)n3)nc2c1 (single isomer, unassigned) [Example 78] | > 1000 nM | 0.478 nM | – | – | – |
| O=C(Cn1nc(C(F)F)c2c1C(F)(F)[C@@H]1C[C@H]21)N[C@@H](Cc1cc(F)cc(F)c1)c1nc2cn[nH]c2cc1-c1ccc(Cl)c(C(=O)NS(=O)(=O)C2CCCC2)c1 [Example 10.21, 2-Chloro-N-(cyclopentylsulfonyl)-5-(5-((S)-1-(2-((3bS,4aR)-3-(difluoromethyl)-5,5-difluoro-3b,4,4a,5-tetrahydro-1H-cyclopropa[3,4]cyclopenta[1,2-c]pyrazol-1-yl)acetamido)-2-(3,5-difluorophenyl)ethyl)-1H-pyrazolo[4,3-b]pyridin-6-yl)benzamide] | – | – | > 10000 nM | 240 nM | – |
| CC(C)c1ccc(-n2c([C@H](Cc3cc(F)cc(F)c3)NC(=O)Cn3nc(C(F)F)c4c3C(F)(F)[C@@H]3C[C@H]43)nc3ncccc3c2=O)cn1 [Example 10.37] | – | – | 6900 nM | 4.8 nM | – |
| CC(C)c1ccc(-n2c([C@H](Cc3cc(F)cc(F)c3)NC(=O)Cn3nc(C(F)F)c4c3C(F)(F)[C@@H]3C[C@H]43)nc3ncccc3c2=O)cc1 [Example 35, 2-[(2S,4R)-9-(difluoromethyl)-5,5-difluoro-7,8-diazatricyclo[4.3.0.0^2,4]nona-1(6),8-dien-7-yl]-N-[(1S)-2-(3,5-difluorophenyl)-1-{4-oxo-3-[4-(propan-2-yl)phenyl]-3H,4H-pyrido[2,3-d]pyrimidin-2-yl}ethyl]acetamide] | 1580 nM | 16.3 nM | – | – | – |
| O=C(Cn1nc(C(F)F)c2c1C(F)(F)[C@@H]1C[C@H]21)N[C@@H](Cc1cc(F)cc(F)c1)c1nc2ncccc2c(=O)n1-c1ccc2scnc2c1 [Example 10.24] | – | – | > 10000 nM | 1.7 nM | – |
| Cn1nc(NS(C)(=O)=O)c2c(Cl)ccc(-n3c(C(Cc4cc(F)cc(F)c4)NC(=O)Cn4nc(C(F)F)c5c4C(F)(F)[C@@H]4C[C@H]54)nc4c(F)cc(F)cc4c3=O)c21 (stereo partly shown) [Example 73] | > 1000 nM | 1.53 nM | – | – | – |

Source: patent US10954252B1, “Inhibitors of human immunodeficiency virus replication” (ViiV HEALTHCARE UK (NO.5) LIMITED, priority 2017, dated 2021)
